In patent US20240109972A1, “ANTIBODY AND TAXANE COMBINATION THERAPY” (Genmab A/S, priority 2020, published 2024):

Tested on: solid malignant tumors
Experiment: GEN1046 Phase I dose escalation (NCT03917381), response by RECIST v1.1
Assay type: in vivo, human
Details: for CR (Complete Response), patients / Confirmed CR (Complete Response), patients / Confirmed Disease Control (PR + PR + SD) Rate, % / Confirmed Disease Control (PR + PR + SD) Rate, patients / Confirmed NE (Not Evaluable), % of patients / Confirmed NE (Not Evaluable), patients / Confirmed Objective Response (CR + PR) Rate, patients / Confirmed PD (Progressive Disease), % of patients / Confirmed PD (Progressive Disease), patients / Confirmed PR (Partial Response), patients / Confirmed SD (Stable Disease), % of patients / Confirmed SD (Stable Disease), patients / Disease Control (PR + PR + SD) Rate, % / Disease Control (PR + PR + SD) Rate, patients / NE (Not Evaluable), % of patients / NE (Not Evaluable), patients / Objective Response (CR + PR) Rate, patients / PD (Progressive Disease), % of patients / PD (Progressive Disease), patients / PR (Partial Response), patients / Confirmed Objective Response (CR + PR) Rate, % / Confirmed PR (Partial Response), % of patients / Objective Response (CR + PR) Rate, % / PR (Partial Response), % of patients: Oct. 12, 2020; for BOR Complete Response, (percent) / BOR Complete Response, patients / BOR Partial Response, (percent) / BOR Partial Response, patients / BOR Progressive Disease, (percent) / BOR Progressive Disease, patients / BOR Stable Disease, (percent) / BOR Stable Disease, patients: 3 Feb. 2020
Excerpt: The resistance to, failure to respond to and/or relapse from treatment with a binding agent of the invention and/or other therapeutic agent(s) may be determined according to the Response Evaluation Criteria In Solid Tumors; version 1.1 (RECIST Criteria v1.1).
The “best overall response” is the best response recorded from the start of the treatment until disease progression/recurrence (the smallest measurements recorded since the treatment started will be used as the reference for PD). Subjects with CR or PR are considered to be objective response. Subjects with CR, PR or SD are considered to be in disease control. Subjects with NE are counted as non-responders. […]
Clinical trial on GCT1046-01 (ClinicalTrials.gov Identifier: NCT03917381) was designed as a two-part trial, including an ongoing dose escalation part and a planned expansion part.
The trial consists of 2 parts; a First-in-Human (FIH) dose escalation (Phase I) and an expansion (Phase 11a).
For dose escalation, subject was required to be a man or […] and was required to have measurable disease according to RECIST 1.1.

Substance: GEN1046: PD-L1×4-1BB bispecific antibody: PD-L1-547-FEAL combined with CD137-009-HC7LC2-FEAR (SEQ ID NOs: 1, 5, 21, 19; 8, 12, 22, 20)
- CR (Complete Response), patients (25 mg (N 4)): 0
- Confirmed CR (Complete Response), patients (25 mg (N 4)): 0
- Confirmed Disease Control (PR + PR + SD) Rate, % (25 mg (N 4)): 25.0%
- Confirmed Disease Control (PR + PR + SD) Rate, patients (25 mg (N 4)): 1
- Confirmed NE (Not Evaluable), % of patients (25 mg (N 4)): 25.0%
- Confirmed NE (Not Evaluable), patients (25 mg (N 4)): 1
- Confirmed Objective Response (CR + PR) Rate, patients (25 mg (N 4)): 0
- Confirmed PD (Progressive Disease), % of patients (25 mg (N 4)): 50.0%
- Confirmed PD (Progressive Disease), patients (25 mg (N 4)): 2
- Confirmed PR (Partial Response), patients (25 mg (N 4)): 0
- Confirmed SD (Stable Disease), % of patients (25 mg (N 4)): 25.0%
- Confirmed SD (Stable Disease), patients (25 mg (N 4)): 1
- Disease Control (PR + PR + SD) Rate, % (25 mg (N 4)): 25.0%
- Disease Control (PR + PR + SD) Rate, patients (25 mg (N 4)): 1
- NE (Not Evaluable), % of patients (25 mg (N 4)): 25.0%
- NE (Not Evaluable), patients (25 mg (N 4)): 1
- Objective Response (CR + PR) Rate, patients (25 mg (N 4)): 0
- PD (Progressive Disease), % of patients (25 mg (N 4)): 50.0%
- PD (Progressive Disease), patients (25 mg (N 4)): 2
- PR (Partial Response), patients (25 mg (N 4)): 0
- BOR Complete Response, (percent) (25 mg (n = 2)): (0)
- BOR Complete Response, patients (25 mg (n = 2)): 0
- BOR Partial Response, (percent) (25 mg (n = 2)): (0)
- BOR Partial Response, patients (25 mg (n = 2)): 0
- BOR Progressive Disease, (percent) (25 mg (n = 2)): (100)
- BOR Progressive Disease, patients (25 mg (n = 2)): 2
- BOR Stable Disease, (percent) (25 mg (n = 2)): (0)
- BOR Stable Disease, patients (25 mg (n = 2)): 0
- CR (Complete Response), patients (50 mg (N 5)): 0
- Confirmed CR (Complete Response), patients (50 mg (N 5)): 0
- Confirmed Disease Control (PR + PR + SD) Rate, % (50 mg (N 5)): 60.0%
- Confirmed Disease Control (PR + PR + SD) Rate, patients (50 mg (N 5)): 3
- Confirmed NE (Not Evaluable), patients (50 mg (N 5)): 0
- Confirmed Objective Response (CR + PR) Rate, patients (50 mg (N 5)): 0
- Confirmed PD (Progressive Disease), % of patients (50 mg (N 5)): 40.0%
- Confirmed PD (Progressive Disease), patients (50 mg (N 5)): 2
- Confirmed PR (Partial Response), patients (50 mg (N 5)): 0
- Confirmed SD (Stable Disease), % of patients (50 mg (N 5)): 60.0%
- Confirmed SD (Stable Disease), patients (50 mg (N 5)): 3
- Disease Control (PR + PR + SD) Rate, % (50 mg (N 5)): 60.0%
- Disease Control (PR + PR + SD) Rate, patients (50 mg (N 5)): 3
- NE (Not Evaluable), patients (50 mg (N 5)): 0
- Objective Response (CR + PR) Rate, patients (50 mg (N 5)): 0
- PD (Progressive Disease), % of patients (50 mg (N 5)): 40.0%
- PD (Progressive Disease), patients (50 mg (N 5)): 2
- PR (Partial Response), patients (50 mg (N 5)): 0
- BOR Complete Response, (percent) (50 mg (n = 5)): (0)
- BOR Complete Response, patients (50 mg (n = 5)): 0
- BOR Partial Response, (percent) (50 mg (n = 5)): (0)
- BOR Partial Response, patients (50 mg (n = 5)): 0
- BOR Progressive Disease, (percent) (50 mg (n = 5)): (40)
- BOR Progressive Disease, patients (50 mg (n = 5)): 2
- BOR Stable Disease, (percent) (50 mg (n = 5)): (60)
- BOR Stable Disease, patients (50 mg (n = 5)): 3
- CR (Complete Response), patients (80 mg (N 9)): 0
- Confirmed CR (Complete Response), patients (80 mg (N 9)): 0
- Confirmed Disease Control (PR + PR + SD) Rate, % (80 mg (N 9)): 88.9%
- Confirmed Disease Control (PR + PR + SD) Rate, patients (80 mg (N 9)): 8
- Confirmed NE (Not Evaluable), patients (80 mg (N 9)): 0
- Confirmed Objective Response (CR + PR) Rate, % (80 mg (N 9)): 11.1%
- Confirmed Objective Response (CR + PR) Rate, patients (80 mg (N 9)): 1
- Confirmed PD (Progressive Disease), % of patients (80 mg (N 9)): 11.1%
- Confirmed PD (Progressive Disease), patients (80 mg (N 9)): 1
- Confirmed PR (Partial Response), % of patients (80 mg (N 9)): 11.1%
- Confirmed PR (Partial Response), patients (80 mg (N 9)): 1
- Confirmed SD (Stable Disease), % of patients (80 mg (N 9)): 77.8%
- Confirmed SD (Stable Disease), patients (80 mg (N 9)): 7
- Disease Control (PR + PR + SD) Rate, % (80 mg (N 9)): 88.9%
- Disease Control (PR + PR + SD) Rate, patients (80 mg (N 9)): 8
- NE (Not Evaluable), patients (80 mg (N 9)): 0
- Objective Response (CR + PR) Rate, % (80 mg (N 9)): 22.2%
- Objective Response (CR + PR) Rate, patients (80 mg (N 9)): 2
- PD (Progressive Disease), % of patients (80 mg (N 9)): 11.1%
- PD (Progressive Disease), patients (80 mg (N 9)): 1
- PR (Partial Response), % of patients (80 mg (N 9)): 22.2%
- PR (Partial Response), patients (80 mg (N 9)): 2
- BOR Complete Response, (percent) (80 mg (n = 8)): (0)
- BOR Complete Response, patients (80 mg (n = 8)): 0
- BOR Progressive Disease, (percent) (80 mg (n = 8)): (12.5)
- BOR Progressive Disease, patients (80 mg (n = 8)): 1
- BOR Stable Disease, (percent) (80 mg (n = 8)): (62.5)
- BOR Stable Disease, patients (80 mg (n = 8)): 5
- BOR Partial Response, (percent) (80 mg (n = 8), uPR): (25)
- BOR Partial Response, patients (80 mg (n = 8), uPR): 2^1
- CR (Complete Response), patients (100 mg (N 6)): 0
- Confirmed CR (Complete Response), patients (100 mg (N 6)): 0
- Confirmed Disease Control (PR + PR + SD) Rate, % (100 mg (N 6)): 66.7%
- Confirmed Disease Control (PR + PR + SD) Rate, patients (100 mg (N 6)): 4
- Confirmed NE (Not Evaluable), % of patients (100 mg (N 6)): 33.3%
- Confirmed NE (Not Evaluable), patients (100 mg (N 6)): 2
- Confirmed Objective Response (CR + PR) Rate, % (100 mg (N 6)): 16.7%
- Confirmed Objective Response (CR + PR) Rate, patients (100 mg (N 6)): 1
- Confirmed PD (Progressive Disease), patients (100 mg (N 6)): 0
- Confirmed PR (Partial Response), % of patients (100 mg (N 6)): 16.7%
- Confirmed PR (Partial Response), patients (100 mg (N 6)): 1
- Confirmed SD (Stable Disease), % of patients (100 mg (N 6)): 50.0%
- Confirmed SD (Stable Disease), patients (100 mg (N 6)): 3
- Disease Control (PR + PR + SD) Rate, % (100 mg (N 6)): 66.7%
- Disease Control (PR + PR + SD) Rate, patients (100 mg (N 6)): 4
- NE (Not Evaluable), % of patients (100 mg (N 6)): 33.3%
- NE (Not Evaluable), patients (100 mg (N 6)): 2
- Objective Response (CR + PR) Rate, % (100 mg (N 6)): 16.7%
- Objective Response (CR + PR) Rate, patients (100 mg (N 6)): 1
- PD (Progressive Disease), patients (100 mg (N 6)): 0
- PR (Partial Response), % of patients (100 mg (N 6)): 16.7%
- PR (Partial Response), patients (100 mg (N 6)): 1
- CR (Complete Response), patients (140 mg (N 6)): 0
- Confirmed CR (Complete Response), patients (140 mg (N 6)): 0
- Confirmed Disease Control (PR + PR + SD) Rate, % (140 mg (N 6)): 50.0%
- Confirmed Disease Control (PR + PR + SD) Rate, patients (140 mg (N 6)): 3
- Confirmed NE (Not Evaluable), % of patients (140 mg (N 6)): 16.7%
- Confirmed NE (Not Evaluable), patients (140 mg (N 6)): 1
- Confirmed Objective Response (CR + PR) Rate, patients (140 mg (N 6)): 0
- Confirmed PD (Progressive Disease), % of patients (140 mg (N 6)): 33.3%
- Confirmed PD (Progressive Disease), patients (140 mg (N 6)): 2
- Confirmed PR (Partial Response), patients (140 mg (N 6)): 0
- Confirmed SD (Stable Disease), % of patients (140 mg (N 6)): 50.0%
- Confirmed SD (Stable Disease), patients (140 mg (N 6)): 3
- Disease Control (PR + PR + SD) Rate, % (140 mg (N 6)): 50.0%
- Disease Control (PR + PR + SD) Rate, patients (140 mg (N 6)): 3
- NE (Not Evaluable), % of patients (140 mg (N 6)): 16.7%
- NE (Not Evaluable), patients (140 mg (N 6)): 1
- Objective Response (CR + PR) Rate, patients (140 mg (N 6)): 0
- PD (Progressive Disease), % of patients (140 mg (N 6)): 33.3%
- PD (Progressive Disease), patients (140 mg (N 6)): 2
- PR (Partial Response), patients (140 mg (N 6)): 0
- BOR Complete Response, (percent) (140 mg (n = 1)): (0)
- BOR Complete Response, patients (140 mg (n = 1)): 0
- BOR Partial Response, (percent) (140 mg (n = 1)): (0)
- BOR Partial Response, patients (140 mg (n = 1)): 0
- BOR Progressive Disease, (percent) (140 mg (n = 1)): (100)
- BOR Progressive Disease, patients (140 mg (n = 1)): 1
